In patent publication US5336673A, “3-substituted cephem compounds” (priority 1990, dated 1994):
≈ marks a conversion by molar mass, not a printed value.

Assays:
Enterobacter cloacae P99 = experiment: Antibacterial activity, MIC by Agar dilution method, standard test strain 19; format: cell-based; conditions: P99, 18 h
Description: (§1) The antibacterial activity was determined by an Agar dilution method as described below.
(§2) That is, the two-fold serial dilutions of the antibacterial compounds (1000 μg compound/ml) were prepared and dispersed in Muller Hinton Agar in a petri dish to a concentration of 100~0.002 μg/ml. The culture broths of standard test strains were inoculated on the medium to a concentration 10^7 CFU/ml, and incubated at 37° C. for 18 hours. The concentration of compounds(I) at which the strains were not grown was regarded as minimum inhibition concentration (MIC).
(§3) The results of antibacterial activity test of the representative examples of the compound (I) against 20 standard test strains shown in terms of MIC were indicated in Table 1.
19. Enterobacter cloacae P99

[1] = test system: Gram-positive strains, for example, Staphylococcus aureus; experiment: Antibacterial activity against Gram-positive strains (summary in words); format: cell-based; conditions: e.g. Staphylococcus aureus resistant to third-generation cephalosporins
Description: as §1, §2

[2] = test system: Staphylococcus aureus 503; experiment: Antibacterial activity, MIC by Agar dilution method, standard test strain 6; format: cell-based; conditions: 10^7 CFU/ml, 37° C., 18 hours
Description: as §1, §2, §3
6. Staphylococcus aureus 503

[3] = test system: Streptococcus pyogenes 77A; experiment: Treatment effect on systemic infection model; format: in vivo; conditions: im, read-out: PD50
Description: The antibacterial activity test on systemic infection model was carried out using the compound of Example 18 as follows: 0.3 ml of diluted solution containing lethal dose of strain was administered intraperitoneally to the test animal, and then 5 to 0.078 mg/kg of compound was administered intramuscularly.

[4] = test system: Klebsiella aerogenes 1522E; experiment: Antibacterial activity, MIC by Agar dilution method, standard test strain 18; format: cell-based; conditions: Klebsiella aerogenes, 1522E, 18 h
Description: as §1, §2, §3
18. Klebsiella aerogenes 1522E

Streptococcus I = experiment: MIC against clinically isolated strains; format: cell-based; conditions: 20 clinical isolates
Description: as §1, §2

Escherichia coli = experiment: MIC against clinically isolated strains; format: cell-based; conditions: 18 h, 20 clinical isolates
Description: as §1, §2

D Streptococcus II = experiment: MIC against clinically isolated strains; format: cell-based; conditions: 18 h, 20 clinical isolates
Description: as §1, §2

Pseudomonas aeruginosa = experiment: MIC against clinically isolated strains; format: cell-based; conditions: 18 h, 20 clinical isolates
Description: as §1, §2

Enterobacter cloacae = experiment: MIC against clinically isolated strains; format: cell-based; conditions: 20 clinical isolates
Description: as §1, §2

D Streptococcus I = experiment: MIC against clinically isolated strains; format: cell-based; conditions: 18 h, 20 clinical isolates
Description: as §1, §2

Enterococcus I = experiment: MIC against clinically isolated strains; format: cell-based; conditions: 18 h, 20 clinical isolates
Description: as §1, §2

Proteus mirabilis = experiment: MIC against clinically isolated strains; format: cell-based; conditions: 18 h, 4 clinical isolates
Description: as §1, §2

Providencia rettgeri = experiment: MIC against clinically isolated strains; format: cell-based; conditions: 18 h, 6 clinical isolates
Description: as §1, §2

Streptococcus II = experiment: MIC against clinically isolated strains; format: cell-based; conditions: 18 h, 17 clinical isolates
Description: as §1, §2

Pseudomonas II = experiment: MIC against clinically isolated strains; format: cell-based; conditions: 18 h, 19 clinical isolates
Description: as §1, §2

Enterococcus II = experiment: MIC against clinically isolated strains; format: cell-based; conditions: 20 clinical isolates
Description: as §1, §2

Pseudomonas I = experiment: MIC against clinically isolated strains; format: cell-based; conditions: 18 h, 19 clinical isolates
Description: as §1, §2

Proteus vulgaris = experiment: MIC against clinically isolated strains; format: cell-based; conditions: 18 h, 5 clinical isolates
Description: as §1, §2

Serratia spp = experiment: MIC against clinically isolated strains; format: cell-based; conditions: 18 h, 20 clinical isolates
Description: as §1, §2

Morganella morganil = experiment: MIC against clinically isolated strains; format: cell-based; conditions: 18 h, 5 clinical isolates
Description: as §1, §2

[5] = test system: Enterobacter cloacae 1321E; experiment: Antibacterial activity, MIC by Agar dilution method, standard test strain 20; format: cell-based; conditions: Enterobacter cloacae, 1321E, 18 h
Description: as §1, §2, §3
20. Enterobacter cloacae 1321E

[6] = molecular target: T1, β-lactamase from Enterobacter cloacae P99 (Enterobacter cloacae, UniProt P05364); experiment: Stability against β-lactamase, relative hydrolysis; format: biochemical; conditions: Enterobacter cloacae P99 enzyme; 100 μM; relative(percentage), Cephaloridine taken as 100; OD at 260 nm
T1 construct: directly isolated from Enterobacter cloacae P99, E. coli TEM and Citrobacter freundii; endogenous in cells; host or cells: Enterobacter cloacae P99
Description: The β-lactamases employed in the test were directly isolated from Enterobacter cloacae P99, E. coli TEM and Citrobacter freundii, and the antibiotics for comparison were Cephaloridine, Cephradine, Cefoperazone and Cefotaxime.
The relative hydrolysis of various compounds were calculated relative to the OD of Cephaloridine.

[7] = test system: Pseudomonas aeruginosa 9027; experiment: Antibacterial activity, MIC by Agar dilution method, standard test strain 12; format: cell-based; conditions: 10^7 CFU/ml, 37° C., 18 hours
Description: as §1, §2, §3
12. Pseudomonas aeruginosa 9027

[8] = test system: Streptococcus faecium MD 86; experiment: Antibacterial activity, MIC by Agar dilution method, standard test strain 3; format: cell-based; conditions: Enterococcus faecium, MD86, 10^7 CFU/ml, 37° C., 18 hours
Description: as §1, §2, §3
3. Streptococcus faecium MD 86

[9] = test system: Pseudomonas aeruginosa 1771M; experiment: Antibacterial activity, MIC by Agar dilution method, standard test strain 15; format: cell-based; conditions: 18 h
Description: as §1, §2, §3
15. Pseudomonas aeruginosa 1771M

T1 sequence (P05364 21-381): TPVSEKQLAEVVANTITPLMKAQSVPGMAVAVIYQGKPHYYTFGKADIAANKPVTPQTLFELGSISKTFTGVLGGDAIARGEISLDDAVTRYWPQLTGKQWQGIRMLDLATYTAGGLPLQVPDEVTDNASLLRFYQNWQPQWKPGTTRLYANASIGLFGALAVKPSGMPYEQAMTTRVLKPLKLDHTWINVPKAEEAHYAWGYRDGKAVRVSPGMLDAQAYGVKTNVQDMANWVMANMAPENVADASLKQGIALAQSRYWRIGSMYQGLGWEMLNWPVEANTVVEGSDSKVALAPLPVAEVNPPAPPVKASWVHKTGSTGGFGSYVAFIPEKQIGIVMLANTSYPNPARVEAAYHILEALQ

In the case of `CON=C(C(=O)NC1C(=O)N2C(C(=O)[O-])=C(C[n+]3nn(N)c4ccccc43)CSC12)c1csc(N)n1` [Example 18, (6R,7R)-7-[(Z)-2-(2-aminothiazol-4-yl)-2-methoxyiminoacetamido]-3-[(1-aminobenzotriazol-3-ium)methyl]-ceph-3-em-4-carboxylate], the MIC (Enterobacter cloacae P99) is reported as 12.5 µg/mL (≈ 23.6 µM), the “antibacterial activity (in words)” value [1] is reported as “strong activity” and the MIC [2] is reported as 0.195 µg/mL (≈ 0.368 µM). For the same compound, the ED50 [3] was 0.27 mg/kg, the MIC [4] was 0.025 µg/mL (≈ 0.0472 µM) and the “MIC Range” value (Streptococcus I) was 0.004 to 12.5 µg/mL. For the same compound, the MIC50 (Streptococcus I; 18 h) was 0.025 µg/mL (≈ 0.0472 µM), the MIC90 (Streptococcus I; 18 h) was 6.25 µg/mL (≈ 11.8 µM) and the MIC (Escherichia coli) was 0.007 to 0.195 µg/mL (≈ 0.0132 to 0.368 µM). It also gave an MIC50 (Escherichia coli) of 0.013 µg/mL (≈ 0.0245 µM), an MIC90 (Escherichia coli) of 0.025 µg/mL (≈ 0.0472 µM) and an MIC (D Streptococcus II) of 3.12 to 100 µg/mL (≈ 5.9 to 189 µM). The MIC50 (D Streptococcus II) was 25 µg/mL (≈ 47.2 µM), the MIC90 (D Streptococcus II) was 50 µg/mL (≈ 94.4 µM) and the MIC (Pseudomonas aeruginosa) was 1.56 to 25 µg/mL (≈ 2.95 to 47.2 µM). For the same compound, the MIC50 (Pseudomonas aeruginosa) was 6.25 µg/mL (≈ 11.8 µM), the MIC90 (Pseudomonas aeruginosa) was 12.5 µg/mL (≈ 23.6 µM) and the “MIC Range” value (Enterobacter cloacae) was 0.007 to 12.5 µg/mL. The MIC50 (Enterobacter cloacae; 18 h) was 0.025 µg/mL (≈ 0.0472 µM), the MIC90 (Enterobacter cloacae; 18 h) was 0.391 µg/mL (≈ 0.738 µM) and the MIC (D Streptococcus I) was 3.12 to 100 µg/mL (≈ 5.9 to 189 µM). For the same compound, the MIC50 (D Streptococcus I) was 12.5 µg/mL (≈ 23.6 µM), the MIC90 (D Streptococcus I) was 100 µg/mL (≈ 189 µM) and the MIC (Enterococcus I) was 0.007 to 0.195 µg/mL (≈ 0.0132 to 0.368 µM). The MIC50 (Enterococcus I) was 0.025 µg/mL (≈ 0.0472 µM), the MIC90 (Enterococcus I) was 0.049 µg/mL (≈ 0.0925 µM) and the MIC (Proteus mirabilis) was 0.013 to 0.098 µg/mL (≈ 0.0245 to 0.185 µM). It also gave an MIC50 (Proteus mirabilis) of 0.013 µg/mL (≈ 0.0245 µM), an MIC90 (Proteus mirabilis) of 0.098 µg/mL (≈ 0.185 µM) and an MIC (Providencia rettgeri) of 0.007 to 0.195 µg/mL (≈ 0.0132 to 0.368 µM). It also gave an MIC50 (Providencia rettgeri) of 0.025 µg/mL (≈ 0.0472 µM), an MIC90 (Providencia rettgeri) of 0.098 µg/mL (≈ 0.185 µM) and an MIC (Streptococcus II) of 0.002 to 0.013 µg/mL (≈ 0.00378 to 0.0245 µM). The MIC50 (Streptococcus II) was 0.004 µg/mL (≈ 0.00755 µM), the MIC90 (Streptococcus II) was 0.007 µg/mL (≈ 0.0132 µM) and the MIC (Pseudomonas II) was 0.391 to 12.5 µg/mL (≈ 0.738 to 23.6 µM). For the same compound, the MIC50 (Pseudomonas II) was 1.56 µg/mL (≈ 2.95 µM), the MIC90 (Pseudomonas II) was 6.25 µg/mL (≈ 11.8 µM) and the “MIC Range” value (Enterococcus II) was 0.004 to 25 µg/mL. For the same compound, the MIC50 (Enterococcus II; 18 h) was 0.025 µg/mL (≈ 0.0472 µM), the MIC90 (Enterococcus II; 18 h) was 0.098 µg/mL (≈ 0.185 µM) and the MIC (Pseudomonas I) was 0.195 to 12.5 µg/mL (≈ 0.368 to 23.6 µM). For the same compound, the MIC50 (Pseudomonas I) was 1.56 µg/mL (≈ 2.95 µM), the MIC90 (Pseudomonas I) was 6.25 µg/mL (≈ 11.8 µM) and the MIC (Proteus vulgaris) was 0.025 to 0.195 µg/mL (≈ 0.0472 to 0.368 µM). For the same compound, the MIC50 (Proteus vulgaris) was 0.098 µg/mL (≈ 0.185 µM), the MIC90 (Proteus vulgaris) was 0.195 µg/mL (≈ 0.368 µM) and the MIC (Serratia spp) was 0.013 to 0.098 µg/mL (≈ 0.0245 to 0.185 µM). It also gave an MIC50 (Serratia spp) of 0.025 µg/mL (≈ 0.0472 µM), an MIC90 (Serratia spp) of 0.049 µg/mL (≈ 0.0925 µM) and an MIC (Morganella morganil) of 0.004 to 0.025 µg/mL (≈ 0.00755 to 0.0472 µM). It also gave an MIC50 (Morganella morganil) of 0.013 µg/mL (≈ 0.0245 µM), an MIC90 (Morganella morganil) of 0.025 µg/mL (≈ 0.0472 µM) and an MIC [5] of 0.007 µg/mL (≈ 0.0132 µM). For the same compound, the “Relative hydrolysis by β-lactamase” value [6] was 0.0, the MIC [7] was 3.12 µg/mL (≈ 5.9 µM) and the MIC [8] was greater than 100 µg/mL. For the same compound, the MIC [9] was 0.781 µg/mL (≈ 1.47 µM).
